Columns and labels:
[1] = Chemical stability of TCD717 in solution under stress conditions; format: physicochemical
Description: The chemical stability of TCD717 (compound No. 6, Q=Br) in solution (which comprises MeOH/water 3:1 v/v and additional stress elements, as indicated in the Table) under various stress conditions is provided in the following Table.

[2] = pH solubility profiling in Titrisol buffers (HPLC after filtration); format: physicochemical; settings: 24 h, room temperature
Description: The pH solubility profile of compound TCD717 (compound No. 6, Q=Br) was assessed at pH 2-8. […] The TCD717 concentration after filtration through a 0.22 μm pore size PVDF filter was determined using HPLC.

[3] = Solubility in saline solutions at different NaCl concentrations; format: physicochemical; settings: NaCl 2, 5, 10, 20, 100 and 165 mM (FIG. 2)
Description: To obtain a greater insight on the sensitivity of the solubility for sodium and chloride ions, the solubility of TCD717 was tested in saline solutions at NaCl concentrations of 2, 5, 10, 20, 100 and 165 mM NaCl.

[4] = Solubility testing in lipophilic and amphiphilic vehicles; format: physicochemical
Description: The solubility of TCD717 was determined in selected vehicles. […] The undissolved fraction of TCD717 was separated by filtration through a 0.22 μm pore size PVDF filter, and the filtrate was diluted before analyzing the TCD717 content by HPLC.

[5] = Solubility in simulated biological media and dilution media; format: physicochemical; settings: for Solubility of TCD717: 24 h stirring, room temperature
[6] = format: physicochemical
Description: The solubility of solid TCD717 at room temperature in prototype vehicles suitable for intravenous formulation and the behavior after five-fold dilution with 0.9% NaCl solutions was tested. Formulations were prepared by dissolving the components in water at the indicated concentration.

Question: Which results are given for `CN(c1ccc(Cl)cc1)c1cc[n+](Cc2ccc(-c3ccc(C[n+]4ccc(N(C)c5ccc(Cl)cc5)c5ccccc54)cc3)cc2)c2ccccc12.[Br-].[Br-]` [TCD717]?
Answer: Observation (chemical stability) ([1]; MeOH/water 3:1 v/v, 0.1M HCl/1 day): No degradation observed; Observation (chemical stability), degradation ([1]; MeOH/water 3:1 v/v, 0.1M NaOH/1 day): Some degradation (~6%); Observation (chemical stability) ([1]; MeOH/water 3:1 v/v, 3% H2O2 + 0.1M HCl): Complete degradation; Observation (chemical stability) ([1]; MeOH/water 3:1 v/v, 3% H2O2 + 0.1M NaOH): Complete degradation; Observation (chemical stability) ([1]; MeOH/water 3:1 v/v, 3% H2O2/1 day): No degradation observed; Stability ([1]; combinations of acidic/oxidizing and basic/oxidizing conditions): very unstable; Stability ([1]; under basic conditions): only moderately stable; TCD717 concentration (solubility) ([2]; Boron acid/HCl/NaOH 110 mM (Tritrisol), buffer pH 8): 3 µg/mL; TCD717 concentration (solubility) ([2]; Citrate/HCl 30 mM (Tritrisol), buffer pH 2): 45 µg/mL; TCD717 concentration (solubility) ([2]; Citrate/HCl 40 mM (Tritrisol), buffer pH 3): 32 µg/mL; TCD717 concentration (solubility) ([2]; Citrate/HCl 56 mM (Tritrisol), buffer pH 4): 8 µg/mL; TCD717 concentration (solubility) ([2]; Citrate/NaOH 60 mM (Tritrisol), buffer pH 6): 62 µg/mL; TCD717 concentration (solubility) ([2]; Citrate/NaOH 96 mM (Tritrisol), buffer pH 5): 6 µg/mL; TCD717 concentration (solubility) ([2]; Phosphate (K + Na+) 67 mM (Tritrisol), buffer pH 7): 860 µg/mL; TCD717 concentration (solubility) ([2]; Water, suspended at 5 mg/ml): 200 µg/mL; Aqueous solubility as a function of NaCl concentration [3]: decreases at NaCl concentrations above 20 mM; Solubility ([4]; Cremophor EL35, at least 24 h at 45° C.): 0.78 mg/g; Solubility ([4]; Miglyol 812, at least 24 h at 45° C.): 0.002 mg/g; Solubility ([4]; Solutol HS15, at least 24 h at 45° C.): 2.3 mg/g; Affinity for detergents ([4]; Solutol HS 15 and Tween 80): low affinity; Solubility ([4]; Soya oil, at least 24 h at 45° C.): 0.015 mg/g; Solubility ([4]; Tween 80, at least 24 h at 45° C.): 3.1 mg/g; Solubility ([4]; soy oil and Miglyol): very low; Solubility of TCD717 ([5]; Glucose 5% (w/v)): 260 µg/mL; Solubility of TCD717 ([5]; Human Serum Albumin 2% (w/v)): 275 µg/mL; Solubility of TCD717 ([5]; Saline 0.9% (w/v)): 9 µg/mL; Solubility of TCD717 ([5]; Water): 200 µg/mL; Solubility in aqueous NaCl 0.9% ([5]; aqueous NaCl 0.9%): 9 µg/mL; Solubility in water ([5]; water at 25° C.): 200 µg/mL; Solubilization potential of the solubilizing agent for TCD717 [6]: highest solubilization potential; Precipitation after dilution ([6]; HP-β-CD composition, five-fold dilution with 0.9% NaCl solutions): no precipitation

From patent US20150037397A1, “PHARMACEUTICAL COMPOSITIONS OF PYRIDINIUM AND QUINOLINIUM DERIVATIVES” (TRASLATIONAL CANCER DRUGS PHARMA, S.L., priority 2010, published 2015)
